# Test results published in patent publication US20200347043A1, “MODULATORS OF THE INTEGRATED STRESS PATHWAY” (Calico Life Sciences LLC, priority 2019, published 2020).
# System: HEK293T cells carrying the ATF4 luciferase reporter
# Experiment: ATF4-Luc assay (in vitro model of VWMD)
# Format: cell-based, human
# Settings: Homo sapiens, HEK-293T, 1 μg/mL tunicamycin, 7 hours, One Glo luminescence
# Experimental: In order to test exemplary compounds of the invention in a cellular context, a stable VWMD cell line was first constructed. The ATF4 reporter was prepared by fusing the human full-length ATF4 5′-UTR (NCBI Accession No. BC022088.2) in front of the firefly luciferase (FLuc) coding sequence lacking the initiator methionine as described in Sidrauski et al (eLife 2013). The construct was used to produce recombinant retroviruses using standard methods and the resulting viral supernatant was used to transduce HEK293T cells, which were then subsequently selected with puromycin to generate a stable cell line.
# HEK293T cells carrying the ATF4 luciferase reporter were plated on polylysine coated 384-well plates (Greiner Bio-one) at 30,000 cells per well. Cells were treated the next day with 1 μg/mL tunicamycin and 200 nM of a compound of Formula (I) for 7 hours. Luminescence was measured using One Glo (Promega) as specified by the manufacturer. Cells were maintained in DMEM with L-glutamine supplemented with 10% heat-inactivated FBS (Gibco) and Antibiotic-Antimycotic solution (Gibco).
# Table 4 below summarizes the EC50 data obtained using the ATF4-Luc assay for exemplary compounds of the invention.
row,Compound,EC50
1,"O=C(CO[C@H]1C[C@@H](OC(F)(F)F)C1)NC12CCC(NC(=O)COc3ccc(Cl)c(F)c3)(CC1)[C@@H](O)C2 [Compound 112, 2-(4-chloro-3-fluorophenoxy)-N-[(2S)-2-hydroxy-4-(2-{[(1s,3R)-3-(trifluoromethoxy)cyclobutyl]oxy}acetamido)bicyclo[2.2.2]octan-1-yl]acetamide]",< 10 nM
2,"O=C(CO[C@H]1C[C@@H](OC(F)(F)F)C1)NC12CC(NC(=O)C3CC(=O)c4cc(Cl)ccc4O3)(C1)C2 (stereo partly shown) [Compound 113, 6-chloro-4-oxo-N-[3-(2-{[(1s,3s)-3-(trifluoromethoxy)cyclobutyl]oxy}acetamido)bicyclo[1.1.1]pentan-1-yl]-3,4-dihydro-2H-1-benzopyran-2-carboxamide]",10 to 50 nM
3,"O=C(CO[C@H]1C[C@@H](OC(F)(F)F)C1)NC12CCC(NC(=O)[C@H]3CC(=O)c4cc(Cl)ccc4O3)(CC1)C[C@@H]2O [Compound 115, (2R)-6-chloro-N-[(3S)-3-hydroxy-4-(2-{[(1s,3R)-3-(trifluoromethoxy)cyclobutyl]oxy}acetamido)bicyclo[2.2.2]octan-1-yl]-4-oxo-3,4-dihydro-2H-1-benzopyran-2-carboxamide]",< 10 nM
4,"O=C(COc1ccc(Cl)cc1)NC12CCC(NC(=O)CO[C@H]3C[C@@H](OC(F)(F)F)C3)(CC1)CC2 [Compound 116, 2-(4-chlorophenoxy)-N-[4-(2-{[(1s,3s)-3-(trifluoromethoxy)cyclobutyl]oxy}acetamido)bicyclo[2.2.2]octan-1-yl]acetamide]",< 10 nM
5,"O=C(CO[C@H]1C[C@@H](OC(F)(F)F)C1)NC12CCC(NC(=O)[C@H]3C[C@@H](O)c4cc(Cl)ccc4O3)(CC1)C[C@@H]2O [Compound 117, (2R,4R)-6-chloro-4-hydroxy-N-[(3S)-3-hydroxy-4-(2-{[(1s,3R)-3-(trifluoromethoxy)cyclobutyl]oxy}acetamido)bicyclo[2.2.2]octan-1-yl]-3,4-dihydro-2H-1-benzopyran-2-carboxamide]",< 10 nM
6,"O=C(COc1ccc(Cl)c(F)c1)NC12CC(NC(=O)[C@H]3C[C@@H](OC(F)(F)F)C3)(C1)C2 [Compound 118, (1s,3s)-N-{3-[2-(4-chloro-3-fluorophenoxy)acetamido]bicyclo[1.1.1]pentan-1-yl}-3-(trifluoromethoxy)cyclobutane-1-carboxamide]",500 to 2000 nM
7,"O=C(NC12CC(C(=O)NCc3ccc(C(F)(F)F)cn3)(C1)C2)[C@H]1C[C@@H](O)c2cc(Cl)ccc2O1 [Compound 119, (2R,4R)-6-chloro-4-hydroxy-N-[3-({[5-(trifluoromethyl)pyridin-2-yl]methyl}carbamoyl)bicyclo[1.1.1]pentan-1-yl]-3,4-dihydro-2H-1-benzopyran-2-carboxamide]",10 to 50 nM
8,"O=C(COc1ccc(Cl)c(F)c1)N[C@@H]1CC[C@@H](C(=O)N2CC(Oc3ccc(Cl)cc3)C2)OC1 [Compound 120, 2-(4-chloro-3-fluorophenoxy)-N-{(3R,6S)-6-[3-(4-chlorophenoxy)azetidine-1-carbonyl]oxan-3-yl}acetamide]",10 to 50 nM
9,"O=C(COc1ccc(Cl)c(F)c1)NC12CCC(c3nnc([C@H]4C[C@@H](OC(F)(F)F)C4)o3)(CC1)CC2O (stereo partly shown) [Compound 124, 2-(4-chloro-3-fluorophenoxy)-N-(2-hydroxy-4-{5-[(1s,3s)-3-(trifluoromethoxy)cyclobutyl]-1,3,4-oxadiazol-2-yl}bicyclo[2.2.2]octan-1-yl)acetamide]",10 to 50 nM
10,"O=C(N[C@H]1C[C@H]2CC[C@@H](C1)N2CCCOc1ccc(Cl)cc1)[C@H]1C[C@@H](O)c2cc(Cl)ccc2O1 [Compound 125, (2R,4R)-6-chloro-N-{(1R,3r,5S)-8-[3-(4-chlorophenoxy)propyl]-8-azabicyclo[3.2.1]octan-3-yl}-4-hydroxy-3,4-dihydro-2H-1-benzopyran-2-carboxamide]",50 to 250 nM
